Where only a bound is given, the exact number is not on record here.

By IC50 is commonly meant the concentration needed to halve the response being measured. Read a low IC50 as greater potency in that assay.

Test [1] deals with CDK2 (UniProt P24941). Description: Enzyme Assay.
Test [2] addresses CDK2 (UniProt P24941). Nature of the test: Enzyme Assay. The source holds these as a separate data set.

As to `O=C(NCC1CCCO1)c1n[nH]cc1NC(=O)c1c(F)cccc1F` (configuration not stated), the IC50 at CDK2 [1] and at CDK2 [2] was below 20 µM each time. Turning to `Cc1cc(CNC(=O)c2n[nH]cc2NC(=O)c2c(F)cccc2F)no1`, the IC50 against CDK2 [1] and against CDK2 [2] was below 20 µM throughout. With `O=C(NCc1ccncc1)c1n[nH]cc1NC(=O)c1c(F)cccc1F`, the IC50 at CDK2 [1] and on CDK2 [2] was below 20 µM throughout. With `COc1ccccc1CNC(=O)c1n[nH]cc1NC(=O)c1c(F)cccc1F`, the IC50 at CDK2 [1] and on CDK2 [2] was below 20 µM each time. For `Cc1nn(C)c(C)c1CNC(=O)c1n[nH]cc1NC(=O)c1c(F)cccc1F`, the IC50 against CDK2 [1] and against CDK2 [2] was below 20 µM in each case. Turning to `O=C(Nc1c[nH]nc1C(=O)NCC1CC1)c1cccc2c1OCCO2`, at CDK2 [2], the 50% inhibitory concentration (IC50) was below 20 µM. `Cc1onc(-c2ccccc2)c1C(=O)Nc1c[nH]nc1C(=O)NC1CCNCC1` displayed an IC50 against CDK2 [2] below 750 µM. Still for that read-out and setting: for `CN1CCC(NC(=O)Nc2c[nH]nc2C(=O)N[C@H]2CC[C@H](O)CC2)CC1` the value was below 20 µM; for `CN1CCC(NC(=O)c2n[nH]cc2NC(=O)c2ccccc2Cl)CC1`, below 20 µM; for `CN1CCC(NC(=O)c2n[nH]cc2NC(=O)c2ccccc2OC(C)(C)C)CC1`, below 20 µM. On CDK2 [2], `CC(C)(C)C1CCC(NC(=O)c2n[nH]cc2NC(=O)c2ccccc2)CC1` (configuration not stated) gave an IC50 below 750 µM. In the case of `O=C(Nc1c[nH]nc1C(=O)NC1CCNCC1)c1ccc(Cl)cc1`, the IC50 against CDK2 [2] is below 20 µM.

For the origin of these results see the Kinase Knowledgebase extract (Sharma et al. 2016).
